Measurements from the supplement of paper PMC10702517.
± gives the standard deviation.

Experiments:
[1] = chemical recovery into PDMS from spiked human plasma; higher = better extraction; conditions: pooled human plasma, extraction method: PES with PDMS
[2] = chemical recovery from spiked human plasma; higher = better extraction; conditions: pooled human plasma
[3] = chemical recovery by SPE of plasma after PDMS sampling; higher = better extraction; conditions: pooled human plasma, extraction method: HLB SPE of plasma after PES
[4] = extraction method: SPE only (HLB 96-well)
[5] = extraction method: SPE only (HLB 96-well), PES comparison experiment
[6] = extraction method: solvent precipitation (ACN + hexane)
[7] = extraction method: PES+SPE (3 d PDMS equilibration then HLB SPE)
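For chemical recovery by SPE of plasma after PDMS sampling in this document: over 400 spiked chemicals quantified by LC-HRMS or GC-HRMS via internal standard calibration, recovery relative to spike mix added to unspiked plasma extract to correct matrix effects.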

chemical recovery [2, 7]	chemical recovery by SPE of plasma ([3]; equilibration time (d): 1)	chemical recovery by SPE of plasma ([3]; equilibration time (d): 3)	chemical recovery by SPE of plasma ([3]; equilibration time (d): 6)	SMILES	chemical recovery into PDMS ([1]; equilibration time (d): 1)	chemical recovery into PDMS ([1]; equilibration time (d): 3)	chemical recovery into PDMS ([1]; equilibration time (d): 6)	chemical recovery [2, 4]	chemical recovery [2, 5]	chemical recovery [2, 6]
0.105 ± 0.0078%	0.00668 ± 0.0083%	–	–	CCCCNc1ccc(C(=O)OCCN(C)C)cc1 [Tetracain]	–	–	–	2.67 ± 1.9%	–	–
38.9 ± 4.2%	50.8 ± 5.4%	54 ± 2.9%	50.9 ± 2.3%	Cc1cccc(Nc2ccncc2S(=O)(=O)NC(=O)NC(C)C)c1 [Torasemide]	–	–	–	43.8 ± 3.6%	49.1 ± 3.4%	73.1 ± 4.1%
–	55.2 ± 12%	58.4 ± 5.8%	54.9 ± 10%	C[C@]12C=CC(=O)C=C1CC[C@H]1[C@@H]3C[C@@H](O)[C@](O)(C(=O)CO)[C@@]3(C)C[C@H](O)[C@@]12F [Triamcinolone]	–	–	–	–	50.5 ± 3.2%	–
–	30.2 ± 3.2%	35.1 ± 4.1%	33 ± 2.3%	CC[C@H]1OC(=O)C[C@@H](O)[C@H](C)[C@@H](O[C@@H]2O[C@H](C)[C@@H](O[C@H]3C[C@@](C)(O)[C@@H](O)[C@H](C)O3)[C@H](N(C)C)[C@H]2O)[C@@H](CC=O)C[C@@H](C)C(=O)/C=C/C(C)=C/[C@@H]1CO[C@@H]1O[C@H](C)[C@@H](O)[C@@H](OC)[C@H]1OC [TylosinCH4O]	–	–	–	–	33.9 ± 4.8%	–
–	13.4 ± 2.1%	7.22 ± 1.1%	4.01 ± 0.43%	CCCc1nc(C)c2c(=O)nc(-c3cc(S(=O)(=O)N4CCN(CC)CC4)ccc3OCC)[nH]n12 [Vardenafil]	–	–	–	–	35.1 ± 8.2%	–
50 ± 3.2%	62.2 ± 10%	66.6 ± 3.5%	62.8 ± 4.6%	CC(=O)CC(c1ccccc1)c1c(O)c2ccccc2oc1=O (stereo not drawn) [Warfarin]	–	–	–	44.9 ± 2.1%	56.6 ± 4.3%	72.5 ± 6.1%
22.9 ± 2.4%	37.1 ± 6.7%	34 ± 4.3%	25.3 ± 2.6%	O=C1Cc2cc(CCN3CCN(c4nsc5ccccc45)CC3)c(Cl)cc2N1 [Ziprasidone]	–	–	–	38.7 ± 2.6%	41.5 ± 7.6%	76 ± 9.8%
–	–	–	0.481 ± 2.9%	C(=C/c1ccccc1)/c1ccccc1 [cis-Stilbene]	–	–	–	3.93 ± 0.065%	3.65 ± 1.4%	–
–	–	36.3 ± 2.3%	38.3 ± 8.9%	Cc1ccc(S(=O)(=O)O)c(C)c1 [m-Xylene-4-sulfonic acid]	–	–	–	46.9 ± 14%	45.2 ± 4.9%	74.3 ± 4.9%

Further lines, the compound ahead of its results:

SMILES	chemical recovery [2, 7]	chemical recovery by SPE of plasma ([3]; equilibration time (d): 1)	chemical recovery by SPE of plasma ([3]; equilibration time (d): 3)	chemical recovery by SPE of plasma ([3]; equilibration time (d): 6)	chemical recovery into PDMS ([1]; equilibration time (d): 1)	chemical recovery into PDMS ([1]; equilibration time (d): 3)	chemical recovery into PDMS ([1]; equilibration time (d): 6)	chemical recovery [2, 4]	chemical recovery [2, 5]	chemical recovery [2, 6]
O=C(Nc1ccc(F)cc1)c1cccc(Oc2cccc(C(F)(F)F)c2)n1 [Picolinafen]	–	–	–	–	50.6 ± 4.7%	54.1 ± 5.5%	50.4 ± 4.1%	49.3 ± 14%	28.9 ± 6%	69.8 ± 6%
CC(=O)[C@H]1CC[C@H]2[C@@H]3CCC4=CC(=O)CC[C@]4(C)[C@H]3CC[C@]12C [Progesterone]	–	–	–	–	47.3 ± 3.5%	50.6 ± 4.3%	48.2 ± 0.51%	–	45.7 ± 9.4%	–
COC(=O)N(OC)c1ccccc1COc1ccn(-c2ccc(Cl)cc2)n1 [Pyraclostrobin]	71.5 ± 8.6%	–	–	–	46.4 ± 5.7%	47.9 ± 3.8%	46.6 ± 3.3%	48 ± 6.1%	36.9 ± 5%	–
CCOC(=O)c1cn2nc(OP(=S)(OCC)OCC)cc2nc1C [Pyrazophos]	55.7 ± 7.8%	–	–	–	39.1 ± 4.4%	40.5 ± 2.3%	40.1 ± 2.1%	43 ± 3.4%	40.2 ± 7.4%	–
CC(C)(C)c1ccc(CSc2cnn(C(C)(C)C)c(=O)c2Cl)cc1 [Pyridaben]	–	–	–	–	50.4 ± 7.5%	49.7 ± 3.6%	49.4 ± 2.4%	7.91 ± 1.1%	–	–
CC(COc1ccc(Oc2ccccc2)cc1)Oc1ccccn1 (stereo not drawn) [Pyriproxyfen]	–	–	–	–	48.2 ± 4.8%	50.9 ± 6.1%	49.3 ± 2.8%	39.7 ± 12%	23 ± 4.6%	–
O=c1[nH]nc(C(F)(F)F)s1 [Thiadone]	–	–	47.9 ± 6.8%	41.5 ± 14%	–	–	–	–	15.9 ± 4.4%	–
CC1(C)[C@H](C=C(Cl)Cl)[C@H]1C(=O)OCc1c(F)c(F)cc(F)c1F [Transfluthrin]	–	–	–	–	79.7 ± 14%	113 ± 37%	92.7 ± 12%	0.85 ± 0.086%	13.8 ± 3.7%	31.9 ± 2.4%
CC(C)COP(=O)(OCC(C)C)OCC(C)C [Tri-isobutylphosphate]	–	–	–	–	37.6 ± 1.3%	39.9 ± 4.4%	39.9 ± 2.7%	–	31.3 ± 5.5%	–
CC(C)(C)C(O)C(Oc1ccc(Cl)cc1)n1cncn1 (stereo not drawn) [Triadimenol]	–	–	–	–	39.4 ± 1.5%	43.5 ± 3.8%	43.6 ± 0.11%	–	47.4 ± 7.7%	68.9 ± 3.2%
CC(C)N(C(=O)SCC(Cl)=C(Cl)Cl)C(C)C [Triallate]	–	–	–	–	29 ± 1.7%	32.2 ± 4%	29.8 ± 1.9%	16.3 ± 5%	22.8 ± 6.1%	76.8 ± 11%
COP(=O)(OC)C(O)C(Cl)(Cl)Cl (stereo not drawn) [Trichlorfon]	13.2 ± 1.2%	30.8 ± 2.4%	25.3 ± 0.61%	18.2 ± 1.2%	–	–	–	33.1 ± 1.9%	43.1 ± 8.1%	0.0499 ± 0.086%
COc1cc(Cl)ccc1Oc1ccc(Cl)cc1Cl [Triclosan-methyl]	–	–	–	–	–	–	84.6 ± 26%	0.483 ± 0.13%	12.2 ± 2.8%	22.2 ± 1.1%
Cc1ccc(OP(=O)(Oc2ccc(C)cc2)Oc2ccc(C)cc2)cc1 [Tricresylphosphate]	–	–	–	–	54.2 ± 6.3%	56.1 ± 5.2%	54 ± 3.2%	44.8 ± 12%	25.4 ± 4.9%	–
CO/N=C(/C(=O)OC)c1ccccc1CO/N=C(\C)c1cccc(C(F)(F)F)c1 [Trifloxystrobin]	–	–	–	–	47.2 ± 4.1%	47.8 ± 5.8%	47.3 ± 3.1%	48 ± 6.8%	45.4 ± 8.7%	–
O=P(Oc1ccccc1)(Oc1ccccc1)Oc1ccccc1 [Triphenylphosphate]	–	–	–	–	41.3 ± 4.4%	43.5 ± 3.7%	42 ± 2.9%	57.9 ± 4.8%	41.3 ± 5.6%	88.1 ± 6.6%
Cl[C@H]1[C@H](Cl)[C@@H](Cl)[C@H](Cl)[C@H](Cl)[C@H]1Cl [alpha-HCH]	–	–	–	–	56.7 ± 14%	69.9 ± 18%	66.1 ± 14%	–	25.5 ± 5.6%	–
O=S1OC[C@@H]2[C@H](CO1)[C@]1(Cl)C(Cl)=C(Cl)[C@]2(Cl)C1(Cl)Cl (stereo partly drawn) [beta-Endosulfan]	–	–	–	–	60.6 ± 7.8%	77.8 ± 18%	80.6 ± 18%	3.92 ± 1.1%	15.9 ± 3.6%	17.7 ± 8.9%
C/C(=C\c1ccccc1)c1ccccc1 [trans-a-Methylstilbene]	–	–	–	–	–	97.6 ± 13%	112 ± 44%	–	–	–
